Source: ChEMBL document CHEMBL1201862, “PubChem BioAssay data set” (2004)
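Each compound was tested at five concentrations against cells in 96-well plates for 48 hours. GI50 is the concentration that inhibits growth by half.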 Activity calls are given as the source filed them. Rule as the data show it: active = GI50 up to about 1.1 µM and inactive = higher.

How the values were obtained:
Test in all cases: DTP human tumour cell line panel, 48 h
RPMI-8226 = system: RPMI-8226
KM12 = system: KM12
SN12C = system: SN12C
NCI-H23 = system: NCI-H23
HCT-15 = system: HCT-15
Malme-3M = system: Malme-3M
LOX IMVI = system: LOX IMVI
MDA-N = system: MDA-N
BT-549 = system: BT-549
MOLT-4 = system: MOLT-4
SF-295 = system: SF-295
NCI-H460 = system: NCI-H460
DU-145 = system: DU-145
CAKI-1 = system: CAKI-1
SK-MEL-28 = system: SK-MEL-28
M14 = system: M14
EKVX = system: EKVX
OVCAR-3 = system: OVCAR-3
MDA-MB-231 = system: MDA-MB-231
SNB-19 = system: SNB-19
HL-60 = system: HL-60
A549 = system: A549
HCC 2998 = system: HCC 2998
HOP-62 = system: HOP-62
CCRF-CEM = system: CCRF-CEM
U-251 = system: U-251
COLO 205 = system: COLO 205
SK-MEL-2 = system: SK-MEL-2
UACC-257 = system: UACC-257
OVCAR-8 = system: OVCAR-8
MDA-MB-435 = system: MDA-MB-435
HCT-116 = system: HCT-116
NCI/ADR-RES = system: NCI/ADR-RES
SR = system: SR
MCF7 = system: MCF7
HT-29 = system: HT-29
SK-MEL-5 = system: SK-MEL-5
OVCAR-4 = system: OVCAR-4
786-0 = system: 786-0
K562 = system: K562
TK-10 = system: TK-10
UO-31 = system: UO-31
ACHN = system: ACHN
OVCAR-5 = system: OVCAR-5
SNB-75 = system: SNB-75
UACC-62 = system: UACC-62
SF-539 = system: SF-539
RXF 393 = system: RXF 393
Hs-578T = system: Hs-578T
PC-3 = system: PC-3
SW-620 = system: SW-620
T47D = system: T47D
SK-OV-3 = system: SK-OV-3
HOP-92 = system: HOP-92
A498 = system: A498
NCI-H522 = system: NCI-H522
IGROV-1 = system: IGROV-1
NCI-H226 = system: NCI-H226
SF-268 = system: SF-268

## O=C1OC[C@@H]2Cc3cc4c(cc3[C@H](c3ccc5c(c3)OCO5)[C@@H]12)OCO4
RPMI-8226
  GI50: > 25 µM (inactive)
KM12
  GI50: > 25 µM (inactive)
SN12C
  GI50: 21.9 µM (inactive)
NCI-H23
  GI50: > 25 µM (inactive)
HCT-15
  GI50: 11 µM
Malme-3M
  GI50: > 25 µM (inactive)
LOX IMVI
  GI50: > 25 µM (inactive)
MDA-N
  GI50: 12 µM (inactive)
BT-549
  GI50: > 25 µM (inactive)
MOLT-4
  GI50: 4.11 µM (inactive)
SF-295
  GI50: 24.7 µM (inactive)
NCI-H460
  GI50: > 25 µM (inactive)
DU-145
  GI50: > 25 µM (inactive)
CAKI-1
  GI50: > 25 µM (inactive)
SK-MEL-28
  GI50: > 25 µM (inactive)
M14
  GI50: > 25 µM (inactive)
EKVX
  GI50: > 25 µM (inactive)
OVCAR-3
  GI50: > 25 µM (inactive)
MDA-MB-231
  GI50: 22.7 µM (inactive)
SNB-19
  GI50: > 25 µM (inactive)
HL-60
  GI50: 10.6 µM (inactive)
A549
  GI50: > 25 µM (inactive)
HCC 2998
  GI50: > 25 µM (inactive)
HOP-62
  GI50: 24.7 µM (inactive)
CCRF-CEM
  GI50: > 25 µM (inactive)
U-251
  GI50: > 25 µM (inactive)
COLO 205
  GI50: > 25 µM (inactive)
SK-MEL-2
  GI50: > 25 µM (inactive)
UACC-257
  GI50: > 25 µM (inactive)
OVCAR-8
  GI50: > 25 µM (inactive)
MDA-MB-435
  GI50: 13.3 µM (inactive)
HCT-116
  GI50: 18.2 µM (inactive)
NCI/ADR-RES
  GI50: 9.33 µM (inactive)
SR
  GI50: 24 µM (inactive)
MCF7
  GI50: 24.2 µM (inactive)
HT-29
  GI50: 24.1 µM (inactive)
SK-MEL-5
  GI50: 16 µM (inactive)
OVCAR-4
  GI50: 13.9 µM (inactive)
786-0
  GI50: > 25 µM (inactive)
K562
  GI50: 12 µM (inactive)
TK-10
  GI50: > 25 µM (inactive)
UO-31
  GI50: 15.6 µM (inactive)
ACHN
  GI50: > 25 µM (inactive)
OVCAR-5
  GI50: > 25 µM (inactive)

## O=C(/C=C/c1ccc(-c2ccccc2[N+](=O)[O-])o1)NCc1ccc(C(=O)NCCc2ccccc2)cc1
RPMI-8226
  GI50: > 100 µM (inactive)
KM12
  GI50: > 100 µM (inactive)
SNB-75
  GI50: > 100 µM (inactive)
SN12C
  GI50: > 100 µM (inactive)
NCI-H23
  GI50: > 100 µM (inactive)
HCT-15
  GI50: > 100 µM
Malme-3M
  GI50: > 100 µM (inactive)
LOX IMVI
  GI50: > 100 µM (inactive)
UACC-62
  GI50: 6.4 µM (inactive)
BT-549
  GI50: > 100 µM (inactive)
MOLT-4
  GI50: > 100 µM (inactive)
SF-295
  GI50: > 100 µM (inactive)
NCI-H460
  GI50: > 100 µM (inactive)
DU-145
  GI50: > 100 µM (inactive)
CAKI-1
  GI50: > 100 µM (inactive)
SF-539
  GI50: > 100 µM (inactive)
SK-MEL-28
  GI50: > 100 µM (inactive)
M14
  GI50: > 100 µM (inactive)
EKVX
  GI50: > 100 µM (inactive)
RXF 393
  GI50: > 100 µM (inactive)
OVCAR-3
  GI50: > 100 µM (inactive)
MDA-MB-231
  GI50: > 100 µM (inactive)
SNB-19
  GI50: > 100 µM (inactive)
A549
  GI50: > 100 µM (inactive)
HCC 2998
  GI50: > 100 µM (inactive)
HOP-62
  GI50: > 100 µM (inactive)
Hs-578T
  GI50: > 100 µM (inactive)
U-251
  GI50: > 100 µM (inactive)
COLO 205
  GI50: > 100 µM (inactive)
SK-MEL-2
  GI50: 21.2 µM (inactive)
UACC-257
  GI50: 46.7 µM (inactive)
OVCAR-8
  GI50: > 100 µM (inactive)
PC-3
  GI50: > 100 µM (inactive)
SW-620
  GI50: > 100 µM (inactive)
MDA-MB-435
  GI50: 3.92 µM (inactive)
HCT-116
  GI50: > 100 µM (inactive)
NCI/ADR-RES
  GI50: > 100 µM (inactive)
SR
  GI50: 5.62 µM (inactive)
T47D
  GI50: > 100 µM (inactive)
SK-OV-3
  GI50: > 100 µM (inactive)
HOP-92
  GI50: > 100 µM (inactive)
MCF7
  GI50: > 100 µM (inactive)
HT-29
  GI50: > 100 µM (inactive)
SK-MEL-5
  GI50: > 100 µM (inactive)
OVCAR-4
  GI50: > 100 µM (inactive)
786-0
  GI50: > 100 µM (inactive)
A498
  GI50: 29.3 µM (inactive)
NCI-H522
  GI50: > 100 µM (inactive)
IGROV-1
  GI50: > 100 µM (inactive)
K562
  GI50: > 100 µM (inactive)
TK-10
  GI50: > 100 µM (inactive)
UO-31
  GI50: > 100 µM (inactive)
ACHN
  GI50: > 100 µM (inactive)
OVCAR-5
  GI50: > 100 µM (inactive)
NCI-H226
  GI50: > 100 µM (inactive)
SF-268
  GI50: > 100 µM (inactive)

## COC(=O)C1=COC(OC2OC(CO)C(O)C(O)C2O)C2C3CN4CCc5c([nH]c6ccccc56)C4(CC12)O3 (stereo not drawn)
RPMI-8226
  GI50: > 100 µM (inactive)
KM12
  GI50: > 100 µM (inactive)
SNB-75
  GI50: > 100 µM (inactive)
SN12C
  GI50: > 100 µM (inactive)
NCI-H23
  GI50: > 100 µM (inactive)
HCT-15
  GI50: > 100 µM
Malme-3M
  GI50: > 100 µM (inactive)
LOX IMVI
  GI50: > 100 µM (inactive)
MDA-N
  GI50: > 100 µM (inactive)
UACC-62
  GI50: > 100 µM (inactive)
BT-549
  GI50: > 100 µM (inactive)
MOLT-4
  GI50: > 100 µM (inactive)
SF-295
  GI50: > 100 µM (inactive)
NCI-H460
  GI50: > 100 µM (inactive)
DU-145
  GI50: > 100 µM (inactive)
CAKI-1
  GI50: < 0.01 µM (active)
SF-539
  GI50: > 100 µM (inactive)
SK-MEL-28
  GI50: > 100 µM (inactive)
M14
  GI50: > 100 µM (inactive)
EKVX
  GI50: > 100 µM (inactive)
RXF 393
  GI50: > 100 µM (inactive)
OVCAR-3
  GI50: > 100 µM (inactive)
MDA-MB-231
  GI50: > 100 µM (inactive)
SNB-19
  GI50: > 100 µM (inactive)
HL-60
  GI50: > 100 µM (inactive)
A549
  GI50: > 100 µM (inactive)
HOP-62
  GI50: > 100 µM (inactive)
U-251
  GI50: > 100 µM (inactive)
COLO 205
  GI50: > 100 µM (inactive)
SK-MEL-2
  GI50: > 100 µM (inactive)
UACC-257
  GI50: > 100 µM (inactive)
OVCAR-8
  GI50: > 100 µM (inactive)
PC-3
  GI50: > 100 µM (inactive)
SW-620
  GI50: > 100 µM (inactive)
HCT-116
  GI50: > 100 µM (inactive)
NCI/ADR-RES
  GI50: > 100 µM (inactive)
SR
  GI50: > 100 µM (inactive)
T47D
  GI50: > 100 µM (inactive)
SK-OV-3
  GI50: > 100 µM (inactive)
MCF7
  GI50: > 100 µM (inactive)
HT-29
  GI50: > 100 µM (inactive)
SK-MEL-5
  GI50: > 100 µM (inactive)
OVCAR-4
  GI50: > 100 µM (inactive)
786-0
  GI50: > 100 µM (inactive)
A498
  GI50: > 100 µM (inactive)
IGROV-1
  GI50: 46.5 µM (inactive)
K562
  GI50: > 100 µM (inactive)
TK-10
  GI50: > 100 µM (inactive)
UO-31
  GI50: > 100 µM (inactive)
ACHN
  GI50: > 100 µM (inactive)
OVCAR-5
  GI50: > 100 µM (inactive)
NCI-H226
  GI50: > 100 µM (inactive)
SF-268
  GI50: 31.9 µM (inactive)
